Data reported in patent US20230339891A1, “URACIL DERIVATIVES AS MER-AXL INHIBITORS” (BRISTOL-MYERS SQUIBB COMPANY, priority 2018, published 2023).

Assays:
GST-MERTK 578-872 = GST-MERTK 578-872 (Homo sapiens (Human), UniProt Q12866); assay: MERTK kinase homogeneous time resolved fluorescence (HTRF) binding assay; conditions: 1 nM kinase, fluorescein-labeled kinase tracer at Kd, 60 minutes at room temperature; read-out: Mer HTRF IC50
Procedure, shortened: (§1)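 HTRF binding read-out after 60 min at room temperature, expressed as the 520/495 nm (fluorescein/terbium) ratio. Inhibition normalized to no-protein (100%) and vehicle (0%) controls. IC50 from 11-point dose-response; compounds from 10 mM DMSO stocks.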

HIS-AXL 473-End = HIS-AXL 473-End (Homo sapiens (Human), UniProt P30530); assay: AXL kinase homogeneous time resolved fluorescence (HTRF) binding assay; conditions: 1 nM kinase, fluorescein-labeled kinase tracer at Kd, 60 minutes at room temperature
Chain of HIS-AXL 473-End (P30530 473-894): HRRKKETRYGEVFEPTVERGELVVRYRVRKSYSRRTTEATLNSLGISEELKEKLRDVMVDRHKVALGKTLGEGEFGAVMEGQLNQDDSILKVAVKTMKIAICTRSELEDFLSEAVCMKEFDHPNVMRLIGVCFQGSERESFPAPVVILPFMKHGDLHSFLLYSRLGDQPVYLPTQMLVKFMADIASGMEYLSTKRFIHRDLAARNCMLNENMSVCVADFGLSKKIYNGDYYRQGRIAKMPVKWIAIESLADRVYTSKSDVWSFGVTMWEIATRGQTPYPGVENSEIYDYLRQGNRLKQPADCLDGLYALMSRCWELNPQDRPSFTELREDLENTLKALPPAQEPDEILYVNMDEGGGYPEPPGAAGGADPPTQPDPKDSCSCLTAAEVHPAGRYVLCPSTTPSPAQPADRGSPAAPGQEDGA
Procedure, shortened: as §1

Chain of GST-MERTK 578-872 (Q12866 578-872): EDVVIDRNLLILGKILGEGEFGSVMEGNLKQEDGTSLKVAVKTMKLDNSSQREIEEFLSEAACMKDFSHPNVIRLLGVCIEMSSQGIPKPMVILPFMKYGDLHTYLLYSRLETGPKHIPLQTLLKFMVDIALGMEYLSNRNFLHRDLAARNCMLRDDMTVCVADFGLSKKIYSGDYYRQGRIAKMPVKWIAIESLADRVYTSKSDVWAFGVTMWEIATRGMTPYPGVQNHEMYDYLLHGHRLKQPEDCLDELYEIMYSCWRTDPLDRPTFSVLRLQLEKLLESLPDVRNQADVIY

Row | Structure (SMILES) | IC50 (GST-MERTK 578-872) | IC50 (HIS-AXL 473-End)
1 | CS(=O)(=O)C1CCN(c2nccc(Nc3cc(Oc4ccc(NC(=O)c5cn(C6CC6)c(=O)n(-c6ccc(F)cc6)c5=O)cc4F)ccn3)n2)CC1 [Example 112, 1-cyclopropyl-N-{3-fluoro-4-[(2-{[2-(4-methanesulfonylpipedidin-1-yl)pyrimidin-4-yl]amino}pyridin-4-yl)oxy]phenyl}-3-(4-fluorophenyl)-2,4-dioxo-1,2,3,4-tetrahydropyrimidine-5-carboxamide] | 4.1 nM | 0.8 nM
2 | Cc1cccc(-n2c(=O)c(C(=O)Nc3ccc(Oc4ccnc(Nc5ccc(S(=O)(=O)N(C)C)cn5)c4)c(F)c3)cn(C(C)C)c2=O)c1 [Example 70] | 14 nM | 14 nM
3 | CC(C)n1cc(C(=O)Nc2ccc(Oc3ccnc(Nc4ccnc(N5CCN(S(C)(=O)=O)CC5)n4)c3)c(F)c2)c(=O)n(-c2ccc(F)cc2)c1=O [Example 102, N-{3-fluoro-4-[(2-{[2-(4-methanesulfonylpiperazin-1-yl)pyrimidin-4-yl]amino}pyridin-4-yl)oxy]phenyl}-3-(4-fluorophenyl)-2,4-dioxo-1-(propan-2-yl)-1,2,3,4-tetrahydropyrimidine-5-carboxamide] | 0.5 nM | 0.9 nM
4 | CC(C)n1cc(C(=O)Nc2ccc(Oc3ccnc(Nc4ccc(N5CCN(C(C)(C)C)C5=O)cn4)c3)c(F)c2)c(=O)n(-c2ccc(F)cc2)c1=O [Example 91] | 72 nM | 38 nM
5 | CC(C)n1cc(C(=O)Nc2ccc(Oc3ccnc(Nc4ccc(S(=O)(=O)N(C)C)c(N(C)C)n4)c3)c(F)c2)c(=O)n(-c2ccc(F)cc2)c1=O [Example 98, N-{4-[(2-{[6-(dimethylamino)-N,N-(dimethylsulfamoyl)pyridin-2-yl]amino}pyridin-4-yl)oxy]-3-fluorophenyl}-3-(4-fluorophenyl)-2,4-dioxo-1-(propan-2-yl)-1,2,3,4-tetrahydropyrimidine-5-carboxamide] | 22 nM | 36 nM
6 | O=C(Nc1ccc(Oc2ccnc(Nc3ccnc(N4CCCC4)n3)c2)c(F)c1)c1cn(C2CC2)c(=O)n(-c2ccc(F)cc2)c1=O [Example 105] | 1.4 nM | 2.3 nM
7 | CC(C)n1cc(C(=O)Nc2ccc(Oc3ccnc(Nc4ccc(S(=O)(=O)N(C)C)cn4)c3)c(F)c2)c(=O)n(-c2ccccc2)c1=O [Example 42] | 21 nM | 7.4 nM
8 | CC(C)n1cc(C(=O)Nc2ccc(Oc3ccnc(Nc4ccc(C#N)c(N5CCC(S(C)(=O)=O)CC5)n4)c3)c(F)c2)c(=O)n(-c2ccc(F)cc2)c1=O [Example 123] | 1.8 nM | 1.4 nM
9 | CC(C)n1cc(C(=O)Nc2ccc(Oc3ccnc(Nc4ccc(C#N)c(N5CCCC5)n4)c3)c(F)c2)c(=O)n(-c2ccc(F)cc2)c1=O [Example 117] | 2.8 nM | 3 nM
